Experiment [1] relates to Type II EPSPS from Agrobacterium sp. strain CP4. Particulars: read-out: KM for PEP; U.S. Pat. No. 5,633,435; cited from earlier work.
Experiment [2] deals with Sorghum halepense EPSPS, native, SEQ ID NO:8 (Sorghum halepense, UniProt H6T5X2). Description: EPSPS substrate saturation kinetics, native sorghum. The format is biochemical. On the procedure:
EPSPS activity was determined by quantifying the phosphate generated from the EPSPS reaction. Release of inorganic phosphate was coupled to reaction with 2-amino-6-mercapto-7-methylpurine ribonucleoside, catalyzed by purine-nucleoside phosphorylase (M R Webb, Proc. Natl. Acad. Sci. 89:4884-4887, 1992). The absorbance change that occurs was monitored at 360 nm, where the extinction is 11,200 M^−1 cm^−1, with a Spectramax plate reader (Molecular Devices). To determine kinetic parameters, the varied substrate was present at seven concentrations (the eighth being the blank, containing no substrate) ranging from 4 to 400 uM and the unvaried substrate present at saturation. […] Reactions were monitored with a Spectramax plate reader. […] KI was then calculated from the following form of the Michaelis-Menten equation for competitive inhibition: KI=KM[I]/(KM app−KM) KM approximates the dissociation constant of the enzyme-substrate complex while kcat is the rate of conversion of substrate to product when the substrate concentration is saturating. kcat/KM is a widely accepted parameter for catalytic efficiency when substrate concentration is low (˜KM). […] The parameter kcat/KM×KI is used to quantify both catalytic efficiency and insensitivity and thus the overall fitness of the enzyme. […]

In experiment [3] the target is T1, Zea mays EPSPS variant Zm-H6 (868-H6) with A69V (H6-A69V) (Zea mays, UniProt O24566, A1R/A3W/A415G/A68V/A71Q/D401G/E301S/E390G/G101A/I207L/K83R/L97C/T278A/T360S/T440Q/V437R).
T1 sequence (O24566 with tags, fused parts or gaps A1R/A3W/A68V/A71Q/K83R/L97C/G101A/I207L/T278A/E301S/T360S/E390G/D401G/A415G/V437R/T440Q): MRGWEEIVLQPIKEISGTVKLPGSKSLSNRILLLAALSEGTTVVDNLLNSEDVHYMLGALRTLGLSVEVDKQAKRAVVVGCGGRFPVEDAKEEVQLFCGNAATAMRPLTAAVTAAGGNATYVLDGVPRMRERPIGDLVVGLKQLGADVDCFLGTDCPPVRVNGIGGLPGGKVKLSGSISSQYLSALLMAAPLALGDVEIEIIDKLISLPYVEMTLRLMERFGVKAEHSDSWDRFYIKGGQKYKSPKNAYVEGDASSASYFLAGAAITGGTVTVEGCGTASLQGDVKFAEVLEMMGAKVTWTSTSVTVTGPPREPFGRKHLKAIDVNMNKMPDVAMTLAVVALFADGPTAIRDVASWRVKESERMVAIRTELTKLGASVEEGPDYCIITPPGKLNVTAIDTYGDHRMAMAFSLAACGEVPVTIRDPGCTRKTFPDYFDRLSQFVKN
The experiment in a line: Substrate saturation kinetic analysis with glyphosate, H6-A69V. The format is biochemical.

For experiment [4], the target named is Zea mays EPSPS variant 241A 278G (Zea mays, UniProt O24566, K240A/T277G). Description: EPSPS reaction rate with or without 10 uM glyphosate, 241A 278G. Also: 50 µM PEP and S3P. The format is biochemical. Particulars: pH 7; read-out: Reaction rate with 10 μM glyph, % no glyph.
Experiment [5] has as its target T2, Zea mays EPSPS variant Zm-H6 (868-H6) with A36G (H6-A36G) (Zea mays, UniProt O24566, A1R/A35G/A3W/A415G/A71Q/D401G/E301S/E390G/G101A/I207L/K83R/L97C/T278A/T360S/T440Q/V437R).
T2 sequence (O24566 with tags, fused parts or gaps A1R/A3W/A35G/A71Q/K83R/L97C/G101A/I207L/T278A/E301S/T360S/E390G/D401G/A415G/V437R/T440Q): T1 sequence (O24566 with tags, fused parts or gaps A1R/A3W/A68V/A71Q/K83R/L97C/G101A/I207L/T278A/E301S/T360S/E390G/D401G/A415G/V437R/T440Q) with A36G, V69A
The experiment in a line: Substrate saturation kinetic analysis with glyphosate, H6-A36G. The format is biochemical.

Residue numbers refer to the chain shown, from its start.

Chain of Sorghum halepense EPSPS, native, SEQ ID NO:8 (H6T5X2 entry or part of it): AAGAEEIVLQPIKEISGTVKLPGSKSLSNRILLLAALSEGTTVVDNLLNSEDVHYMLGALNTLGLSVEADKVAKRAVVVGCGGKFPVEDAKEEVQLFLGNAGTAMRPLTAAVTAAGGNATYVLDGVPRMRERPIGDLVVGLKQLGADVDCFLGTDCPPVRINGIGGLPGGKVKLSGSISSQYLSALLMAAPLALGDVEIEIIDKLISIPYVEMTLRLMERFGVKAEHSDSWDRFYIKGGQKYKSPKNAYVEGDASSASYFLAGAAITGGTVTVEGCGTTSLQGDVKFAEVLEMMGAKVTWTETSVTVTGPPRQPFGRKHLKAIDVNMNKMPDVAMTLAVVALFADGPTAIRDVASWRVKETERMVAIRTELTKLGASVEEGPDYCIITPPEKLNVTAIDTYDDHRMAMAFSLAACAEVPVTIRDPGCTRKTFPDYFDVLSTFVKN
Chain of Zea mays EPSPS variant 241A 278G (O24566 entry or part of it K240A/T277G): as the sequence (H6T5X2 entry or part of it) above, with A1M, N61R, V72A, I161V, K241A, T278G, Q313E counted along it

Turning to `C=C(OP(=O)(O)O)C(=O)O` [PEP, phosphoenolpyruvate], the Km in experiment [1] was 12 µM.
For `O=C(O)CNCP(=O)(O)O` [glyphosate, N-phosphonomethylglycine], the values for the inhibition constant (Ki) in experiment [2], in experiment [3] and in experiment [5] were 200 nM, 320 µM and 454 µM, respectively. For the same molecule, the “(kcat/KM)*KI” value is recorded as 33 in experiment [2] (PEP as substrate, glyphosate as inhibitor); 2440 in experiment [3] (substrate saturation, H6-A69V); 3630 in experiment [5] (substrate saturation, H6-A36G). Also, the activity at 10 µM in experiment [4] worked out at 3.75%.

As usually defined, the Km is the substrate concentration at which the rate is half of its maximum. Broadly, the Ki is the dissociation constant of the complex between target and ligand, obtained from inhibition or displacement.

Values taken from patent publication US11549123B2, “Plant EPSP synthases and methods of use” (PIONEER HI-BRED INTERNATIONAL, INC., priority 2015, dated 2023).
